{
  "source": "patent US20210106582A1",
  "about": "“COMPOUNDS AND PHARMACEUTICAL COMPOSITIONS THEREOF FOR USE IN THE TREATMENT OF FIBROTIC DISEASES” (Galapagos NV, priority 2017, published 2021)",
  "assay_type_in_all_cases": "in vivo",
  "key": {"[1]": {"test_system": "male C57BL/6 mice fed a Methionine and Choline-deficient (MCD) diet", "assay": "MCD model (methionine and choline deficient diet, NASH)", "details": "individual animals, 30 mg/kg q.d. p.o., MCD diet 8 wk", "protocol": "The methionine and choline deficient (MCD) diet model is used to produce a severe phenotype of NASH in […] (Santhekadur et al., 2017), and is used to evaluate the compounds of the invention.\nAt induction, 8 weeks-old male C57BL/6 mice (Janvier Labs, France) maintained at 22° C.±2° C. and humidity at 55%±10%, with a 12-hrs dark/light cycle are fed a standard diet (chow (A04C-10, Safe, France) or a Methionine and Choline-deficient (MCD) diet (EFTD.90262, Ssniff, Soest, Germany) for 8 weeks. All animals have access to filtered tap drinking water.\nFour weeks after the induction, the animals are either assigned to a control-group or a test-group.\nTest group animals are dosed with the a test compound, i.e. Compound A (CpdA) or Compound B (CpdB), at 30 mg/kg, q.d., p.o. formulated in methylcellulose 0.5%, 1 equivalent HCl. The control groups receives a similar volume of vehicle (10 mL/kg), i.e. the standard diet for control group 1 (C1) and the MCD diet for control group 2 (C2). Mice are randomly assigned to a treatment group according to their body weight in order to ensure a homogenous reparation.\nAfter sacrifice (week 8), the activity of the test compound on the development of NASH is assessed by plasma ALT and AST levels and in liver by histopathological examination of fibrosis and steatosis (Sirius red, Oil Red O), collagen (OH-Pro) and triglycerides content and expression of fibrotic and inflammatory genes.\nIn addition, the NAS score is determined to further evaluate the compounds with respect to their effect on diet induced NASH. The nonalcoholic fatty liver disease activity scoring (NAS) has been proposed and accepted as a tool to measure changes in NAFLD during therapeutic trials (Brunt et al., 2011; Kleiner et al., 2005).\nThe NAS score (0-8) is defined as the sum of the steatosis score (0-3), lobular inflammation score (0-3), ballooning score (0-2). A NAS score of ≥5 is indicative of a NASH diagnostic."}, "[2]": {"test_system": "male C57BL/6 mice fed CDAHF diet", "assay": "CDAHFD model (choline-deficient, L-amino acid-defined, high-fat diet)", "details": "individual animals, CDAHFD 10W, 30 mg/kg q.d. p.o."}, "[3]": {"test_system": "female C57BL/6J mice, lung fibrosis induced by radiation", "assay": "Radiation induced fibrosis mice model", "details": "individual animals, irradiated lung, nintedanib 60 mg/kg QD PO D1-D14", "protocol": "Pneumonitis and lung fibrosis are the major radiation-induced complications following thoracic radiotherapy, which is one of the major treatment of lung and breast cancers, lymphomas and hematopoietic transplant conditioning.\nThe objective of this model is to evaluate the effect of a compound of the invention in lung fibrosis induced by radiation in mice. (Bickelhaupt et al., 2017)\n7 weeks old (18/22 gr) female C57BL/6J mice from Charles River (France) are maintained on 12 h light/dark cycle at 22° C. with ad libidum access to tap water and food.\nThe test compounds are dissolved/suspended in appropriate vehicle prior to using and then kept light-free, under agitation at room temperature.\nThe dose volume administered is 10 mL/kg and the volume is adapted following mean body weight (BW) of the group as follows: 200 μL if mean BW<22.5 g, 250 μL if mean BW≥22.5 g; 300 μL if mean BW>27.5 g.\nOn day 1 of week 1, the animals are exposed at the thorax to a 17 Gray irradiation dose, under isoflurane anesthesia. […]\nBody weight are recorded once a week, and on Day 14, lung function measurement under anesthesia is realized by Flexivent (Devos et al., 2017) for all groups before sacrifice.\nAt sacrifice on Day 14, the lungs are collected and fixed in 4% formaldehyde for 24 h before embedding in paraffin. […] The anti-collagen I antibody is detected and amplified by ImmPress kit (Vector Laboratories, Cat. No: MP-7401). The immunostained sections are then scanned (Nanozoomer 2.0HT, Hamamatsu) before quantification by image analysis (CaloPix software, TRIBVN Healthcare). Data are expressed as percentage collagen I area per area of lung tissue.\nValues for all mice from the same group are averaged. Data are expressed as mean±sem and are compared with a one-way ANOVA followed by Dunnett multiple comparison post hoc test. […]\nManganese superoxide dismutase (MnSOD), located in mitochondria, catalyzes the conversion of superoxide into H2O2, and is a marker of antioxidant response induced by oxidative stress. MnSOD expression is measured immunohistochemically following a protocol adapted from Inghilleri et al. (Inghilleri et al., 2006).\nAt sacrifice on Day 14, the lungs are collected and fixed in 4% formaldehyde for 24 h before embedding in paraffin. […] The anti-MnSOD antibody is detected by an anti-rabbit biotinylated antibody (Vector Laboratories, Cat. No: BA-1100) amplified by avidin-biotin peroxidase (Vector Laboratories, Cat. No: PK-6100). […] The immunostained sections counterstained with Gill's hematoxylin are then scanned (Nanozoomer 2.0HT, Hamamatsu) before quantification by image analysis (CaloPix software, TRIBVN Healthcare). Data are expressed as percentage MnSOD stained area per area of lung tissue."}, "[4]": {"test_system": "C57BL/6N male mice, bleomycin induced pulmonary fibrosis", "assay": "Therapeutic bleomycin induced pulmonary fibrosis 21-day mice model", "details": "individual animals, BLM, nintedanib 60 mg/kg QD PO D7-D21", "protocol": "The aim of the study is to test the efficacy of a test compound at three different doses in a 21-day model of bleomycin induced pulmonary fibrosis in mice.\n11 week-old C57BL/6N male mice from Charles River (Italy) are maintained on 12 h light/dark cycle at 22° C. with ad libidum access to tap water and food.\nOn day 0, all mice in groups 2-4 receive a 1.5 U/kg oropharyngeal administration of bleomycin (BLM) to induce pulmonary fibrosis Animals in group 1 are not administered bleomycin, but instead receive a single dose of saline via the oropharyngeal route, and are considered sham control mice.\nAnimals are examined clinically twice daily. List of clinical signs and parameters are indicated in humane endpoints table. Animals are weighed daily starting from DO.\nOn day 21, lung functionality is determined. After deep anesthesia induced by an intraperitoneal injection (10 mL/kg) of a solution of xylazine (5 mg/kg) and ketamine (75 mg/kg), the trachea is exposed through midline incision and a cannula is inserted. Mice are ventilated with a tidal volume of 10 mL/kg at a frequency of 150 breaths/minute. FlexiVent (SCIREQ®) perturbations are performed three times. Deep Inflation and Pressure-Volume loops (PV loops) with stepwise increasing pressure are performed to measure the Inspiratory Capacity and stepwise pressure-driven perturbation (PVs-P). PV loops between 0 and 30 cm H2O are generated to obtain Total Lung Capacity (A). A snapshot perturbation maneuver is imposed, which is a threefold sinusoidal wave of in- and expiration controlled by the ventilator, resulting in resistance (Rrs), compliance (Crs), and elastance (Ers) of the whole respiratory system (airways, lung and chest wall). A value for each group is calculated with average FlexiVent-validated measurements recorded in each individual subject.\nThen, two hours after the last dose of test substance and nintedanib, mice are sacrificed by anesthetic overdose. The lungs are excised and weighed individually. The lungs are then placed into marked bottles containing 10% buffered formalin for further histopathological evaluation.\nBody weight data and lung weight data are processed using MS Excel. Statistical analysis and graphical presentation are performed using GraphPad Prism software (version 5.04).\nFor histopathological evaluation, whole lungs are embedded in paraffin and stained with Mallory's trichrome.\nPulmonary histological changes are assessed using Matsuse's modification of Ashcroft score (Ashcroft et al., 1988; Matsuse et al., 1999). Statistical analysis and graphical presentation is performed using GraphPad Prism software (version 5.04). Mann-Whitney test is employed.\nDifferences between groups are considered statistically significant when p<0.05."}},
  "note": "Where “and” joins values, the source holds several entries; their conditions need not be identical. Equal values may be shown once.",
  "data": [
    {"smiles": "Cc1c2n(c(OC[C@@H]3COCCO3)cc1=O)CCc1cc(OCC(F)(F)F)ccc1-2", "note": "[Compound B, 4-[[(2S)-1,4-dioxan-2-yl]methoxy]-1-methyl-9-(2,2,2-trifluoroethoxy)-6,7-dihydrobenzo[a]quinolizin-2-one]", "values": [
      {"measurement": "TIMP1 NRQ gene expression", "setting": "[1]; NRQ scaled versus disease, Fig 8 Panel B", "result": "0.3 (3×) and 0.4 (2×) and 0.5 and 1.7 (2×) and 1.2 and 1.4"},
      {"measurement": "Col1a NRQ gene expression", "setting": "[1]; dosing from week 4, Normalised Relative Quantity scaled versus disease, FIG. 8 Panel A", "result": "0.5 and 2.0 and 1.3 and 1.5 (2×) and 0.4 and 0.3 (2×) and 0.2 (2×)"},
      {"measurement": "TNfα NRQ gene expression", "setting": "[1]; liver, NRQ scaled versus disease, Fig 9 Panel A", "result": "0.4 (2×) and 0.7 and 1.1 (2×) and 0.8 and 0.9 and 0.6 and 0.3 (2×)"},
      {"measurement": "CC12 NRQ gene expression", "setting": "[1]; liver, NRQ scaled versus disease, Fig 9 Panel B", "result": "0.8 and 0.3 and 0.7 (2×) and 1.2 (2×) and 0.9 (2×) and 1.5 and 0.5"},
      {"measurement": "NAS scoring data", "setting": "[1]; total NAS score (0-8), Fig 10", "result": "5.0 and 7.0 (2×) and 6.0 (7×)"}
    ]},
    {"smiles": "CSc1ccc(C(=O)/C=C/c2cc(C)c(OC(C)(C)C(=O)O)c(C)c2)cc1", "note": "[CpdC, elafibranor, reference compound]", "values": [
      {"measurement": "Col1a1 expression profiles (NRQ-scaled versus Disease-Vehicle)", "setting": "[2]; Fig 12 panel A", "result": "0.07 and 0.06 and 0.48 and 0.15 and 0.09 and 0.43 and 0.61 and 0.17"},
      {"measurement": "TNFα expression profiles (NRQ-scaled versus Disease-Vehicle)", "setting": "[2]; Figure 12 panel B", "result": "0.45 and 0.19 and 0.41 and 0.75 and 0.55 and 0.32 (2×) and 0.26 and 0.52"},
      {"measurement": "Fibrosis (Sirius red area %)", "setting": "[2]; liver, Figure 11", "result": "0.45% and 0.19% and 0.41% and 0.75% and 0.55% and 0.32% (2×) and 0.26% and 0.52%"}
    ]},
    {"smiles": "COC(=O)c1ccc2c(c1)NC(=O)/C2=C(\\Nc1ccc(N(C)C(=O)CN2CCN(C)CC2)cc1)c1ccccc1", "note": "[nintedanib]", "values": [
      {"measurement": "Type I collagen stained area fraction", "setting": "[3]; Figure 15", "result": "10.5% (2×) and 7.6% and 7.1% and 6.5% and 11.0% and 8.2% and 9.3% and 8.9% and 13.7%"},
      {"measurement": "MnSOD stained area fraction", "setting": "[3]; Figure 16", "result": "1.19% and 0.75% and 0.25% and 0.50% and 0.79% and 0.62% and 0.69% and 0.92% and 0.53% and 1.11%"},
      {"measurement": "Compliance of the Respiratory System", "setting": "[4]; Figure 14 panel B", "result": "0.039 mL/cmH2O (2×) and 0.031 mL/cmH2O and 0.032 mL/cmH2O (2×) and 0.040 mL/cmH2O and 0.027 mL/cmH2O (3×) and 0.034 mL/cmH2O and 0.035 mL/cmH2O and 0.045 mL/cmH2O and 0.015 mL/cmH2O"},
      {"measurement": "Elastance of the Respiratory System", "setting": "[4]; Figure 14 panel C", "result": "25.83 cmH2O/mL and 32.61 cmH2O/mL and 31.04 cmH2O/mL and 25.16 cmH2O/mL and 37.06 cmH2O/mL and 36.60 cmH2O/mL and 31.06 cmH2O/mL and 29.07 cmH2O/mL and 37.31 cmH2O/mL and 28.26 cmH2O/mL and 25.68 cmH2O/mL and 22.39 cmH2O/mL and 68.28 cmH2O/mL"},
      {"measurement": "Ashcroft Score", "setting": "[4]; Matsuse's modification, Figure 13", "result": "2.0 and 2.3 and 2.8 and 3.2 and 3.7 (2×) and 3.5 (4×) and 3.0 (2×) and 3.4 and 2.5 and 2.4"},
      {"measurement": "Inspiratory Capacity", "setting": "[4]; day 21 FlexiVent, Figure 14 panel A", "result": "0.69 mL and 0.57 mL and 0.62 mL and 0.71 mL and 0.48 mL and 0.58 mL and 0.68 mL and 0.53 mL and 0.56 mL and 0.76 mL and 0.78 mL and 0.33 mL"}
    ]}
  ]
}
